From ChEMBL document CHEMBL3885881, “DrugMatrix”

Species: Rattus norvegicus
Assay: DrugMatrix - Regimen: Daily Repeat
Format: toxicity, organism-based, Sprague-Dawley
Set-up: regimen Daily Repeat, gender Male, age 6-8 weeks
Conditions: in vivo, po, route oral GAVAGE; for BASOPHIL / EOSINOPHIL / ERYTHROCYTE COUNT / HEMATOCRIT / HEMOGLOBIN / LEUKOCYTE COUNT / LYMPHOCYTE / MEAN CORPUSCULAR HEMOGLOBIN / MEAN CORPUSCULAR HEMOGLOBIN CONCENTRATION / MEAN CORPUSCULAR VOLUME / MONOCYTE / NEUTROPHIL / PLATELET COUNT / ABSOLUTE BASOPHIL / ABSOLUTE EOSINOPHIL / ABSOLUTE LYMPHOCYTE / ABSOLUTE MONOCYTE / ABSOLUTE SEGMENTED NEUTROPHIL / NUCLEATED RED BLOOD CELLS: tissue Blood; for ALANINE AMINOTRANSFERASE / ALBUMIN / ALKALINE PHOSPHATASE / ASPARTATE AMINOTRANSFERASE / BLOOD UREA NITROGEN / CHLORIDE / CHOLESTEROL / CREATINE PHOSPHOKINASE / CREATININE / GLUCOSE / PHOSPHORUS / POTASSIUM / SODIUM / TOTAL BILIRUBIN / TOTAL PROTEIN / CARBON DIOXIDE / LACTATE DEHYDROGENASE / LIPASE / URIC ACID: tissue Plasma
[1] = 0 mg/kg, 72 h, dose level Control, time 3 day, vehicle 100 % WATER
[2] = 0 mg/kg, 120 h, dose level Control, time 5 day, vehicle 100 % WATER
[3] = 4 mg/kg, 72 h, dose level Low, time 3 day, vehicle 100 % WATER
[4] = 4 mg/kg, 120 h, dose level Low, time 5 day, vehicle 100 % WATER
[5] = 16 mg/kg, 72 h, dose level Low, time 3 day, […]
[6] = 16 mg/kg, 120 h, dose level Low, time 5 day, […]

CCN(CC)CCOC(=O)C1(C2CCCCC2)CCCCC1 [DICYCLOMINE]
BASOPHIL [1]: 0%
EOSINOPHIL [1]: 0.5%
ERYTHROCYTE COUNT [1]: 5.8 x10E6/uL
HEMATOCRIT [1]: 35.07%
HEMOGLOBIN [1]: 14.12 G/DL
LEUKOCYTE COUNT [1]: 13.7 x10E3/uL
LYMPHOCYTE [1]: 82.33%
MEAN CORPUSCULAR HEMOGLOBIN [1]: 24.38 pg
MEAN CORPUSCULAR HEMOGLOBIN CONCENTRATION [1]: 40.28 G/DL
MEAN CORPUSCULAR VOLUME [1]: 60.52 fL
MONOCYTE [1]: 2.67%
NEUTROPHIL [1]: 14.5%
PLATELET COUNT [1]: 911.5 x10E3/uL
ALANINE AMINOTRANSFERASE [1]: 36.83 u/L
ALBUMIN [1]: 3.75 G/DL
ALKALINE PHOSPHATASE [1]: 399.83 u/L
ASPARTATE AMINOTRANSFERASE [1]: 66 u/L
BLOOD UREA NITROGEN [1]: 14.67 mg/dL
CHLORIDE [1]: 101.67 MEQ/L
CHOLESTEROL [1]: 66.33 mg/dL
CREATINE PHOSPHOKINASE [1]: 139.5 u/L
CREATININE [1]: 0.92 mg/dL
GLUCOSE [1]: 175 mg/dL
PHOSPHORUS [1]: 11.42 mg/dL
POTASSIUM [1]: 7.03 MEQ/L
SODIUM [1]: 148.5 MEQ/L
TOTAL BILIRUBIN [1]: 1.13 mg/dL
TOTAL PROTEIN [1]: 6.87 G/DL
BASOPHIL [2]: 0%
EOSINOPHIL [2]: 0.2%
ERYTHROCYTE COUNT [2]: 6.02 x10E6/uL
HEMATOCRIT [2]: 36.48%
HEMOGLOBIN [2]: 14.38 G/DL
LEUKOCYTE COUNT [2]: 12.34 x10E3/uL
LYMPHOCYTE [2]: 83%
MEAN CORPUSCULAR HEMOGLOBIN [2]: 23.92 pg
MEAN CORPUSCULAR HEMOGLOBIN CONCENTRATION [2]: 39.44 G/DL
MEAN CORPUSCULAR VOLUME [2]: 60.66 fL
MONOCYTE [2]: 3%
NEUTROPHIL [2]: 13.8%
PLATELET COUNT [2]: 1190.6 x10E3/uL
ALANINE AMINOTRANSFERASE [2]: 43 u/L
ALBUMIN [2]: 3.73 G/DL
ALKALINE PHOSPHATASE [2]: 393 u/L
ASPARTATE AMINOTRANSFERASE [2]: 62.33 u/L
BLOOD UREA NITROGEN [2]: 16.33 mg/dL
CHLORIDE [2]: 101.67 MEQ/L
CHOLESTEROL [2]: 65.5 mg/dL
CREATINE PHOSPHOKINASE [2]: 130.67 u/L
CREATININE [2]: 0.58 mg/dL
GLUCOSE [2]: 180.67 mg/dL
PHOSPHORUS [2]: 11.28 mg/dL
POTASSIUM [2]: 7.05 MEQ/L
SODIUM [2]: 148.17 MEQ/L
TOTAL BILIRUBIN [2]: 0.72 mg/dL
TOTAL PROTEIN [2]: 6.83 G/DL
BASOPHIL [3]: 0%
EOSINOPHIL [3]: 0.33%
ERYTHROCYTE COUNT [3]: 6.01 x10E6/uL
HEMATOCRIT [3]: 36.27%
HEMOGLOBIN [3]: 14.33 G/DL
LEUKOCYTE COUNT [3]: 12.73 x10E3/uL
LYMPHOCYTE [3]: 85.67%
MEAN CORPUSCULAR HEMOGLOBIN [3]: 23.9 pg
MEAN CORPUSCULAR HEMOGLOBIN CONCENTRATION [3]: 39.57 G/DL
MEAN CORPUSCULAR VOLUME [3]: 60.4 fL
MONOCYTE [3]: 2%
NEUTROPHIL [3]: 12%
PLATELET COUNT [3]: 1302.67 x10E3/uL
ALANINE AMINOTRANSFERASE [3]: 37.67 u/L
ALBUMIN [3]: 3.63 G/DL
ALKALINE PHOSPHATASE [3]: 354.67 u/L
ASPARTATE AMINOTRANSFERASE [3]: 62.33 u/L
BLOOD UREA NITROGEN [3]: 14 mg/dL
CHLORIDE [3]: 102.67 MEQ/L
CHOLESTEROL [3]: 65.33 mg/dL
CREATINE PHOSPHOKINASE [3]: 133.33 u/L
CREATININE [3]: 0.63 mg/dL
GLUCOSE [3]: 179.67 mg/dL
PHOSPHORUS [3]: 11.7 mg/dL
POTASSIUM [3]: 6.7 MEQ/L
SODIUM [3]: 150.67 MEQ/L
TOTAL BILIRUBIN [3]: 0.53 mg/dL
TOTAL PROTEIN [3]: 6.6 G/DL
BASOPHIL [4]: 0%
EOSINOPHIL [4]: 0.33%
ERYTHROCYTE COUNT [4]: 6.36 x10E6/uL
HEMATOCRIT [4]: 39.27%
HEMOGLOBIN [4]: 15.3 G/DL
LEUKOCYTE COUNT [4]: 12.77 x10E3/uL
LYMPHOCYTE [4]: 87.33%
MEAN CORPUSCULAR HEMOGLOBIN [4]: 24.03 pg
MEAN CORPUSCULAR HEMOGLOBIN CONCENTRATION [4]: 38.97 G/DL
MEAN CORPUSCULAR VOLUME [4]: 61.73 fL
MONOCYTE [4]: 2.67%
NEUTROPHIL [4]: 9.67%
PLATELET COUNT [4]: 1082 x10E3/uL
ALANINE AMINOTRANSFERASE [4]: 45 u/L
ALBUMIN [4]: 3.6 G/DL
ALKALINE PHOSPHATASE [4]: 424.67 u/L
ASPARTATE AMINOTRANSFERASE [4]: 67.67 u/L
BLOOD UREA NITROGEN [4]: 15.67 mg/dL
CHLORIDE [4]: 104.33 MEQ/L
CHOLESTEROL [4]: 65 mg/dL
CREATINE PHOSPHOKINASE [4]: 107.33 u/L
CREATININE [4]: 0.6 mg/dL
GLUCOSE [4]: 195 mg/dL
PHOSPHORUS [4]: 12.53 mg/dL
POTASSIUM [4]: 6.67 MEQ/L
SODIUM [4]: 151 MEQ/L
TOTAL BILIRUBIN [4]: 0.63 mg/dL
TOTAL PROTEIN [4]: 6.53 G/DL

O=C(O)c1cc(-c2ccc(F)cc2F)ccc1O [DIFLUNISAL]
ABSOLUTE BASOPHIL [5]: 0 CELLS/uL
ABSOLUTE EOSINOPHIL [5]: 52.33 CELLS/uL
ABSOLUTE LYMPHOCYTE [5]: 12636.67 CELLS/uL
ABSOLUTE MONOCYTE [5]: 104.67 CELLS/uL
ABSOLUTE SEGMENTED NEUTROPHIL [5]: 1073 CELLS/uL
BASOPHIL [5]: 0%
EOSINOPHIL [5]: 0.33%
ERYTHROCYTE COUNT [5]: 5.44 x10E6/uL
HEMATOCRIT [5]: 33.4%
HEMOGLOBIN [5]: 13.27 G/DL
LEUKOCYTE COUNT [5]: 13.87 x10E3/uL
LYMPHOCYTE [5]: 91.33%
MEAN CORPUSCULAR HEMOGLOBIN [5]: 24.4 pg
MEAN CORPUSCULAR HEMOGLOBIN CONCENTRATION [5]: 39.73 G/DL
MEAN CORPUSCULAR VOLUME [5]: 61.47 fL
MONOCYTE [5]: 0.67%
NEUTROPHIL [5]: 7.67%
NUCLEATED RED BLOOD CELLS [5]: 0 /100WBC
PLATELET COUNT [5]: 1096.67 x10E3/uL
ALANINE AMINOTRANSFERASE [5]: 65.33 u/L
ALBUMIN [5]: 3.77 G/DL
ALKALINE PHOSPHATASE [5]: 396.67 u/L
ASPARTATE AMINOTRANSFERASE [5]: 93.33 u/L
BLOOD UREA NITROGEN [5]: 10.67 mg/dL
CARBON DIOXIDE [5]: 29.67 mmol/L
CHLORIDE [5]: 100 MEQ/L
CHOLESTEROL [5]: 80.67 mg/dL
CREATINE PHOSPHOKINASE [5]: 405 u/L
CREATININE [5]: 0.14 mg/dL
GLUCOSE [5]: 166.67 mg/dL
LACTATE DEHYDROGENASE [5]: 130 u/L
LIPASE [5]: 11.33 u/L
PHOSPHORUS [5]: 11.43 mg/dL
POTASSIUM [5]: 6.17 MEQ/L
SODIUM [5]: 141.97 MEQ/L
TOTAL BILIRUBIN [5]: 0.13 mg/dL
TOTAL PROTEIN [5]: 5.47 G/DL
URIC ACID [5]: 1.53 mg/dL
ABSOLUTE BASOPHIL [6]: 0 CELLS/uL
ABSOLUTE EOSINOPHIL [6]: 84.67 CELLS/uL
ABSOLUTE LYMPHOCYTE [6]: 10265 CELLS/uL
ABSOLUTE MONOCYTE [6]: 157.67 CELLS/uL
ABSOLUTE SEGMENTED NEUTROPHIL [6]: 1026 CELLS/uL
BASOPHIL [6]: 0%
EOSINOPHIL [6]: 0.67%
ERYTHROCYTE COUNT [6]: 5.28 x10E6/uL
HEMATOCRIT [6]: 33.5%
HEMOGLOBIN [6]: 13.6 G/DL
LEUKOCYTE COUNT [6]: 11.53 x10E3/uL
LYMPHOCYTE [6]: 89%
MEAN CORPUSCULAR HEMOGLOBIN [6]: 25.73 pg
MEAN CORPUSCULAR HEMOGLOBIN CONCENTRATION [6]: 40.63 G/DL
MEAN CORPUSCULAR VOLUME [6]: 63.37 fL
MONOCYTE [6]: 1.33%
NEUTROPHIL [6]: 9%
NUCLEATED RED BLOOD CELLS [6]: 0.33 /100WBC
PLATELET COUNT [6]: 1107.33 x10E3/uL
ALANINE AMINOTRANSFERASE [6]: 56 u/L
ALBUMIN [6]: 4.13 G/DL
ALKALINE PHOSPHATASE [6]: 404.33 u/L
ASPARTATE AMINOTRANSFERASE [6]: 84.33 u/L
BLOOD UREA NITROGEN [6]: 16 mg/dL
CARBON DIOXIDE [6]: 25.33 mmol/L
CHLORIDE [6]: 102.33 MEQ/L
CHOLESTEROL [6]: 68.67 mg/dL
CREATINE PHOSPHOKINASE [6]: 379.67 u/L
CREATININE [6]: 0.23 mg/dL
GLUCOSE [6]: 159.33 mg/dL
LACTATE DEHYDROGENASE [6]: 227 u/L
LIPASE [6]: 11.67 u/L
PHOSPHORUS [6]: 11.33 mg/dL
POTASSIUM [6]: 6.39 MEQ/L
SODIUM [6]: 143.53 MEQ/L
TOTAL BILIRUBIN [6]: 0.17 mg/dL
TOTAL PROTEIN [6]: 5.47 G/DL
URIC ACID [6]: 1.67 mg/dL
